“Also recorded” adds a separate entry of the source. Like-named read-outs stand apart in the source and are kept apart here. Each block holds one compound with its values, some of them ahead of it. Peptide text beside a SMILES is read from it. * marks the point of attachment. αMan = OC[C@H]1O[C@H](*)[C@@H](O)[C@@H](O)[C@@H]1O
How the values were obtained:
His-Xpress-sOMGnT(S) = target: T1, His-Xpress-sOMGnT(S) (Homo sapiens, UniProt Q8WZA1, M623V); test: Substrate specificity and kinetic parameters of solubilized human OMGnT enzyme (S); type: biochemical; details: for OMGnT relative activity (%) His-Xpress-sOMGnT(S): as sugar receptor, activity with Man-peptide regarded as 100%
T1 construct: Ig kappa chain secretory signal (N); made in house; host or cells: HEK293T (transient, secreted into serum-free medium)
T1 sequence (Q8WZA1 247-660 M623V): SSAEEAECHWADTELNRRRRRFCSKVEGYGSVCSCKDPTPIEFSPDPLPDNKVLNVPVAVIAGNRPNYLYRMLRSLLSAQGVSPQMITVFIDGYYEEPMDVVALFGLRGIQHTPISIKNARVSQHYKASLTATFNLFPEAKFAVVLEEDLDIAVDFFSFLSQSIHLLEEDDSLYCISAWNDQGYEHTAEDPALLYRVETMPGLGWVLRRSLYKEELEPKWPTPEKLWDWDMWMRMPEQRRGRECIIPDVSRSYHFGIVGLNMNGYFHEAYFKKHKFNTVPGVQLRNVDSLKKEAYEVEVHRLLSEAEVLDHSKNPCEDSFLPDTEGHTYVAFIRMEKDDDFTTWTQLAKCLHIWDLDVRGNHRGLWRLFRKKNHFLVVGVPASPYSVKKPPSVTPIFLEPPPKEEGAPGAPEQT
Procedure: (§1) […] […] The reaction mixture was then filtered with a filter Ultrafree-MC (Millipore) having a pore size of 0.22 μm to remove solids, and analyzed by Wakopak 5C18-200 column (4.6×250 mm, Wako Pure Chemical Industries, Ltd.). The separation was carried out using concentration gradient with Solution A and Solution B at a flow rate of 1.0 ml/min. […] Peptide detection was carried out at 214 nm, and the radioactivity of each fraction was assayed using a liquid scintillation counter.
(§2) The activity of GnT-1 was assayed with a method by Yoshida et al. [Yoshida, S., Suzuki, M., Yamano, S., Takeuchi, M., Ikenaga, H., Kioka, N., Sakai, H., and Komano, T., Glycobiology, (1999), 9, 53–58] as described below. A 20 μl reaction solution was prepared by adding an enzyme source thereto so as to have a final concentration of 100 mM MES (pH 6.0), 20 mM MnCl2, 5 μM Manα1–6(Manα1–3)Manα1–6(Manα1–3)Manβ1–4GlcNAcβ1–4GlcNAc-PA(M5GN2-PA; Takara Shuzo, PA-Sugar Chain 017), 1 mM UDP-GlcNAc, 100 mM GlcNAc, 5 mM AMP, 1% Triton X-100, and 0.2% BSA. The reaction solution was incubated at 37° C. for 1 hour, and the reaction was terminated in boiling water. Thereafter, the reaction solution was analyzed by a reverse phase HPLC (Cosmosil 5C18-AR column) available from Nacalai Tesque.
(§3) When Manα1–6(Manα1–3)Manβ1–4GlcNAcβ1–4GlcNAc-PA (M3GN2-PA; Takara Shuzo, PA-Sugar Chain 016) was used as a sugar receptor, the same method was employed for analysis.

His-Xpress-sOMGnT(L) = target: T2, His-Xpress-sOMGnT(L) (Homo sapiens, UniProt Q8WZA1, M623V); test: Substrate specificity and kinetic parameters of solubilized human OMGnT enzyme (L); type: biochemical; details: for OMGnT relative activity (%) His-Xpress-sOMGnT(L): as sugar receptor, activity with Man-peptide regarded as 100%
T2 construct: 595 amino acids from 66: Ser thereof (66: Ser to 660: Thr), respectively; Ig kappa chain secretory signal (N); made in house; host or cells: HEK293T (transient, secreted into serum-free medium)
Procedure: as §1, §2, §3

OMGnT [1] = test: Substrate specificity of OMGnT expressed in animal cells (summary of properties); type: biochemical, human; details: reactivity toward mannosylnanopeptide regarded as 100%
Description: The biochemical properties of the OMGnT: an enzyme protein massively expressed in animal cells as described above are as follows.

[2] = target: T3, OMGnT derived from a newborn rat brain (Rattus norvegicus, UniProt Q5XIN7); test: Divalent cation requirement for OMGnT activity; type: biochemical; details: for Relative activity of OMGnT (%): each additive 10 mM, activity with 10 mM MnCl2 taken as 100%; for effect on OMGnT activity relative to Mn2+: 10 mM for each divalent cation
T3 construct: from tissue; host or cells: newborn rat brain

OMGnT [3] = target: T4, OMGnT (Homo sapiens, UniProt Q8WZA1, M623V); test: OMGnT activity of microsomal fractions of HEK293T cells transfected with full-length human OMGnT plasmid; type: biochemical
T4 construct: a cDNA of approximately 2.0 kb encoding the full length of human OMGnT is inserted; expressed in transfected cells; host or cells: HEK293T
Procedure: (§4) The enzyme solution was added to 140 mM MES [2-(N-morpholino) ethanesulfonic acid] buffer (pH 7.0) containing 0.4 mM Man-peptide, 0.2 mM UDP-[^3H]GlcNAc (up to 228,000 dpm/nmol), 10 mM MnCl2, 5 mM AMP, 200 mM GlcNAc, 2%(w/v) Triton X-100, 10% glycerol, 2 μg/ml antipain, 2 μg/ml chymostatin, 3 μg/ml pepstatin A, 2 μg/ml leupeptin, 1 mM benzamidine-HCl, and 1 mM PMSF (phenylmethylsulfonyl fluoride) to prepare 50 μl of reaction solution. After the reaction at 37° C. for 3 hours, the reaction was terminated by 3 minutes of boiling. The reaction mixture was then filtered with a filter Ultrafree-MC (Millipore) having a pore size of 0.22 μm to remove solids, and analyzed by Wakopak 5C18-200 column (4.6×250 mm, Wako Pure Chemical Industries, Ltd.). The separation was carried out using concentration gradient with Solution A and Solution B at a flow rate of 1.0 ml/min. […] Peptide detection was carried out at 214 nm, and the radioactivity of each fraction was assayed using a liquid scintillation counter.
The mixture was centrifuged for 10 minutes at 900×g, and then the obtained supernatant was centrifuged for 1 hour at 100,000×g, thereby obtaining a microsomal fraction as a precipitate. In the case of preparing solubilized enzyme, the precipitate was suspended in 140 mM MES buffer (pH 7.0) (referred to as solubilization buffer) containing 5 mM AMP, 200 mM GlcNAc, 2%(w/v) Triton X-100, 10% glycerol, 2 μg/ml antipain, 2 μg/ml chymostatin, 3 μg/ml pepstatin A, 2 μg/ml leupeptin, 1 mM benzamidine-HCl, and 1 mM PMSF(phenylmethylsulfonyl fluoride) and sonicated. Thereafter, the resultant was centrifuged for 1 hour at 100,000×g and the obtained supernatant was used.
The expression plasmid was transiently expressed in an HEK293T cell in the same manner as described in Example 3. 15 μg of plasmid was transfected to 50–70% confluent cells in a 10 cm petri dish. After overnight cultivation, the medium was changed. After a further 48-hour cultivation, cells were collected.
A microsomal fraction was prepared from cells by the method described in Example 2, and OMGnT activity of a soluble fraction and an insoluble fraction were assayed by the method described in Example 1.

GnT-I = target: T5, GnT-I (Homo sapiens, UniProt P26572); test: GnT-I activity assay of solubilized enzymes; type: biochemical; details: method of Reference Example 2
T5 construct: Ig kappa chain secretory signal (N); made in house; host or cells: HEK293T (transient, secreted into serum-free medium)
T5 sequence (P26572 39-445 limits assumed): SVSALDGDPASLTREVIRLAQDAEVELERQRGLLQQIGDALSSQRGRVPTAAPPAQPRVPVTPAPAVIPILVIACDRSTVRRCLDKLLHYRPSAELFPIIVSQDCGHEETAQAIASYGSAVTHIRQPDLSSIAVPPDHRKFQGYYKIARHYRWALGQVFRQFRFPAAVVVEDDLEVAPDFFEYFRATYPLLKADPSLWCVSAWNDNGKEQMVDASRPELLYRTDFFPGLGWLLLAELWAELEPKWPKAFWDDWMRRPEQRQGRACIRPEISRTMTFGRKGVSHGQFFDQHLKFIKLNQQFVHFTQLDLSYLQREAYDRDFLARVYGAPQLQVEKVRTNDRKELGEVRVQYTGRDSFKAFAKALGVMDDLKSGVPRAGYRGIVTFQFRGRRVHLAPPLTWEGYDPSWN
Procedure: as §2, §3

OMGnT [4] = test: OMGnT activity in serum-free medium of HEK293T cells expressing solubilized enzymes; type: biochemical, human; details: serum-free medium of HEK293T transfectants
Procedure: as §4
Each secretory expression plasmid was transiently expressed in a HEK293T cell derived from human embryonic kidney. Usually, HEK293T cells were cultured in D-MEM (Gibco, #11995-065) containing 10% Fetal Calf Serum (Hyclone), 10 mM MEM Non-Essential Amino Acids solution (Gibco), 2 mM Glutamine (Gibco), and 100 units/ml Penicillin/100 μg/ml Streptomycin (Gibco). […]

T2 sequence (Q8WZA1 66-660 M623V): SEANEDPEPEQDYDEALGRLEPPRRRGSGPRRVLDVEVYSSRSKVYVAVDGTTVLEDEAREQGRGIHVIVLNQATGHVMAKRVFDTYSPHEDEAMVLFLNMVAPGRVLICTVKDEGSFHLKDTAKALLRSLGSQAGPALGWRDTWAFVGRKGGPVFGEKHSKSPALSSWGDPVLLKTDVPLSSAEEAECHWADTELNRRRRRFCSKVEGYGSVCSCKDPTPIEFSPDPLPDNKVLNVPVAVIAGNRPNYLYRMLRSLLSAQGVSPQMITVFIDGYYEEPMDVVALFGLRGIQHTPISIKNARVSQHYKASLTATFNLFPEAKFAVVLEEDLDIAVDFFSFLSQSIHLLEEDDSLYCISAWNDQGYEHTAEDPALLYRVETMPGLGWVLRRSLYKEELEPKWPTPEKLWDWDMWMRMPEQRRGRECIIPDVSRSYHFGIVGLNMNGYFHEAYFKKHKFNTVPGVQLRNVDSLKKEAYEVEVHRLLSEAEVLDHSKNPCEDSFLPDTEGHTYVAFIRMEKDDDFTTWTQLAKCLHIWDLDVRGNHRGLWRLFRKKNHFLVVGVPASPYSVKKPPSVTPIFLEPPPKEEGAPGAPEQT
T3 sequence (Q5XIN7 whole entry): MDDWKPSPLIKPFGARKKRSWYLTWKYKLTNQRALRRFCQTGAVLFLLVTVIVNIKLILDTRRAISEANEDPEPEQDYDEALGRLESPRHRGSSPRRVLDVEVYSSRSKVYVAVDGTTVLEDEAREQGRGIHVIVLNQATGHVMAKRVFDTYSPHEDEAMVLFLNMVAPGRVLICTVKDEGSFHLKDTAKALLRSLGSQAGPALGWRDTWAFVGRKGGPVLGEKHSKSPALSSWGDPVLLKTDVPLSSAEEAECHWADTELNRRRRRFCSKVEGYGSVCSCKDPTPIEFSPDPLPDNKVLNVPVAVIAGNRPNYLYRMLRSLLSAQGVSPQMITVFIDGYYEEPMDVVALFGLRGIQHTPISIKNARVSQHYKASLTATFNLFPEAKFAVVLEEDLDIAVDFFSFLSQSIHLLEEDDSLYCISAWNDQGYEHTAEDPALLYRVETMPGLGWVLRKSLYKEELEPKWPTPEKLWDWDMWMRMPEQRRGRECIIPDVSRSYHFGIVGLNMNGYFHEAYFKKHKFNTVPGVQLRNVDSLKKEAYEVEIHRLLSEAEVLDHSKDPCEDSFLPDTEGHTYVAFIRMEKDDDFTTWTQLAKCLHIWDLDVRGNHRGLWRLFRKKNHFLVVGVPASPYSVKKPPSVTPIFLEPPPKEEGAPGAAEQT
T4 sequence (Q8WZA1 whole entry M623V): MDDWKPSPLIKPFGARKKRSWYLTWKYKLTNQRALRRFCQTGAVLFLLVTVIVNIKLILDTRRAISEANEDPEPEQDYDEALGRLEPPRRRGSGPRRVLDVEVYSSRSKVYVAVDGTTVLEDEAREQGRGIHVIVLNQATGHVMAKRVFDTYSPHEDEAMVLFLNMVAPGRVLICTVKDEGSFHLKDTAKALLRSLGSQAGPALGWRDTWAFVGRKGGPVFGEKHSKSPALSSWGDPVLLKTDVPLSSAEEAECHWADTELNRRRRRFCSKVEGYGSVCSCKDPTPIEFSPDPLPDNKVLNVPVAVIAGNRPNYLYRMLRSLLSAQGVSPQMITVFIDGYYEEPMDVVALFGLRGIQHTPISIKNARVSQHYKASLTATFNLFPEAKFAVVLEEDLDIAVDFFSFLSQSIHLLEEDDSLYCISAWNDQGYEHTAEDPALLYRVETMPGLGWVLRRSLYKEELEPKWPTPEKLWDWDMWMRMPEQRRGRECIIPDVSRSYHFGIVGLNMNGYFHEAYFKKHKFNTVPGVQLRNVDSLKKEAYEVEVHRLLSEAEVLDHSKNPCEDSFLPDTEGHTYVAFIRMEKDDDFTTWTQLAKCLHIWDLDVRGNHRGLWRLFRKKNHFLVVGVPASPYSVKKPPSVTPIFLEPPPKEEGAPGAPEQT

Compound: O=[N+]([O-])c1ccc(O[C@H]2O[C@H](CO)[C@@H](O)[C@H](O)[C@@H]2O)cc1 [p-nitrophenyl Man, p-nitrophenyl mannose]
OMGnT relative activity (%) His-Xpress-sOMGnT(S) (His-Xpress-sOMGnT(S)): 0%
OMGnT relative activity (%) His-Xpress-sOMGnT(L) (His-Xpress-sOMGnT(L)): 0%
reactivity of the enzyme toward sugar receptor (OMGnT [1]): 0%

Compound: CC(=O)N[C@H]1[C@@H](OP(=O)(O)OP(=O)(O)OC[C@H]2O[C@@H](n3ccc(=O)[nH]c3=O)[C@H](O)[C@@H]2O)O[C@H](CO)[C@@H](O)[C@@H]1O [UDP-GlcNAc]
Km (His-Xpress-sOMGnT(S); 125 mM MOPS pH7.3, 0.4 mM Man-peptide, 7.5 mM MnCl2, 37° C., 2 hours, read-out: apparent Km value of His-Xpress-sOMGnT(S) toward UDP-GlcNAc): 570 µM
Km (His-Xpress-sOMGnT(L); 125 mM MOPS pH7.3, 0.4 mM Man-peptide, 7.5 mM MnCl2, 37° C., 2 hours, read-out: apparent Km value of His-Xpress-sOMGnT(L) toward UDP-GlcNAc): 730 µM

Compound: Manα1–6(Manα1–3)Manβ1–4GlcNAcβ1–4GlcNAc-PA [M3GN2-PA]
OMGnT relative activity (%) His-Xpress-sOMGnT(S) (His-Xpress-sOMGnT(S)): 0%
OMGnT relative activity (%) His-Xpress-sOMGnT(L) (His-Xpress-sOMGnT(L)): 0%

Compound: OMGnT/pcDNA3.1zeo: expression plasmid for full-length human OMGnT (SEQ ID NO: 2), expressed in HEK293T; microsomal fractions assayed
OMGnT activity, times higher than control (no plasmid), insoluble fraction (OMGnT [3]; insoluble fraction): ~140 times
OMGnT activity, Insoluble fraction (OMGnT [3]; insoluble fraction of microsomal fraction, HEK293T): 243.9 pmol/hr/mg protein
OMGnT activity, times higher than control (no plasmid), soluble fraction (OMGnT [3]; soluble fraction): about 120 times
OMGnT activity, Soluble fraction (OMGnT [3]; soluble fraction of microsomal fraction, HEK293T): 182.7 pmol/hr/mg protein
OMGnT activity, Total (OMGnT [3]; soluble plus insoluble fraction): 426.6 pmol/hr/mg protein

Compound: Manα1–6(Manα1–3)Manα1–6(Manα1–3)Manβ1–4GlcNAcβ1–4GlcNAc-PA [M5GN2-PA]
OMGnT relative activity (%) His-Xpress-sOMGnT(S) (His-Xpress-sOMGnT(S)): 0%
OMGnT relative activity (%) His-Xpress-sOMGnT(L) (His-Xpress-sOMGnT(L)): 0%

Compound: His-Xpress-sOMGnT(L): solubilized human OMGnT, 595 amino acids 66:Ser to 660:Thr, secreted from HEK293T; plasmid named in Table 3
GnT-I activity (in words) (GnT-I): did not exhibit activity at all
OMGnT activity (OMGnT [4]): 15 pmol/hr/mg protein
OMGnT activity (in words) (OMGnT [4]): significantly high OMGnT activity

More lines, main results first:

concentration range at which the effect on OMGnT activity is the greatest [2]: 1 to 10 mM
Relative activity of OMGnT (%) [2]: 100%
Compound: [Cl][Mn][Cl] [MnCl2]
effect on OMGnT activity (in words) ([2]; listed as Mn^2+): greatest effect; also recorded: maximum effect

effect on OMGnT activity (in words) [2]: weak effect
effect on OMGnT activity relative to Mn2+ [2]: approximately 15%
Relative activity of OMGnT (%) [2]: 15%
Compound: [Ca+2].[Cl-].[Cl-] [CaCl2]

effect on OMGnT activity relative to Mn2+ [2]: approximately 40%
Relative activity of OMGnT (%) [2]: 39%
Compound: [Cl-].[Cl-].[Mg+2] [MgCl2]

OMGnT relative activity (%) His-Xpress-sOMGnT(S) (His-Xpress-sOMGnT(S)): 100%
OMGnT relative activity (%) His-Xpress-sOMGnT(L) (His-Xpress-sOMGnT(L)): 100%
Compound: CC(=O)N[C@@H](C)C(=O)N[C@@H](C)C(=O)N1CCC[C@H]1C(=O)N[C@H](C(=O)N1CCC[C@H]1C(=O)N[C@H](C(=O)N[C@@H](C)C(=O)N[C@@H](C)C(=O)N1CCC[C@H]1C(N)=O)C(C)C)[C@@H](C)O[C@H]1O[C@H](CO)[C@@H](O)[C@H](O)[C@@H]1O [Man-peptide, Ac-Ala-Ala-Pro-Thr(Man)-Pro-Val-Ala-Ala-Pro-NH2] (Ac-AAPT(αMan)PVAAP-NH2)

Reference: patent publication US7217548B2, “N-acetylglucosaminlytransferase and polynucleotide encoding the same” (National Institute of Advanced Industrial Science and …, priority 2000, dated 2007)
